Patent US6313309A, “4-thionaphthyl--1H--imidazoles which are usefulα22-adrenoceptoR agonists/ antagonists” (Ortho-McNeil Pharmaceutical, Inc., priority 1999, dated 2001)
pKi: −log10 of the molar value. Where two headings read alike, the source gives them in different places.

Legend:
[1] = target: T1, Alpha-2D Adrenergic Receptor (Rattus norvegicus, UniProt P22909); assay: Alpha-2D Adrenergic Receptor Binding Assay (3H-para-aminoclonidine, rat cortex membranes); conditions: rat cortex synaptic membranes
T1 construct: aliquots of the synaptic membrane fraction; from tissue; host or cells: rat cerebral cortex, synaptic membrane fraction (male Wistar rats)
T1 sequence (P22909 1-465): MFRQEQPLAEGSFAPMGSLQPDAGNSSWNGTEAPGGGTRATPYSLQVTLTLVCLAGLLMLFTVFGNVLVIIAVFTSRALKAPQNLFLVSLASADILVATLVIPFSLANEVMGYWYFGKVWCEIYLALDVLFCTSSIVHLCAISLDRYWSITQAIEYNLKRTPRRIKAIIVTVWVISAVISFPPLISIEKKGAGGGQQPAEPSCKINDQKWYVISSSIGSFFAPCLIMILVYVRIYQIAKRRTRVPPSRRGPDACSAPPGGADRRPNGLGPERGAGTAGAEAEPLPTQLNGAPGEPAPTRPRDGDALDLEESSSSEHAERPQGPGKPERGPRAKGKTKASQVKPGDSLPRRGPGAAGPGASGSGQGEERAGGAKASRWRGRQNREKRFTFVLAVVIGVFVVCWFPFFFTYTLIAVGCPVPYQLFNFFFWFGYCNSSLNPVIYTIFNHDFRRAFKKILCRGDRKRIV
Protocol: Male, Wistar rats (150-250 g, VAF, Charles River, Kingston, N.Y.) are sacrificed by cervical dislocation and their brains removed and placed immediately in ice cold HEPES buffered sucrose. The cortex is dissected out and homogenized in 20 volumes of HEPES sucrose in a Teflon™-glass homogenizer. The homogenate is centrifuged at 1000 g for 10 min, and the resulting supernatant centrifuged at 42,000 g for 10 min. The resulting pellet is resuspended in 30 volumes of 3 mM potassium phosphate buffer, pH 7.5, preincubated at 25° C. for 30 min and recentrifuged. The resulting pellet is resuspended as described above and used for the receptor binding assay. Incubation is performed in test tubes containing phosphate buffer, 2.5 mM MgCl2, aliquots of the synaptic membrane fraction, the ligand ^3 H-para-aminoclonidine and test drug at 25° C. for 20 min. The incubation is terminated by filtration of the tube contents through glass fiber filter sheets. Following washing of the sheets with 10 mM HEPES buffer, the adhering radioactivity is quantified by liquid scintillation spectrometry.
Binding of the test drug to the receptor is determined by comparing the amount of radiolabeled ligand bound in control tubes without drug to the amount of radiolabeled ligand bound in the presence of the drug. Dose-response data are analyzed with LIGAND, a nonlinear curve fitting program designed specifically for the analysis of ligand binding data. This assay is described by Simmons, R. M. A., and Jones, D. J., Binding of [^3 H-]prazosin and [^3 H]p-aminoclonidine to (α-Adrenoceptors in Rat Spinal Cord, Brain Research 445:338-349, 1988.

[2] = system: abdominal constriction response; assay: Mouse Acetylcholine Bromide-Induced Abdominal Constriction Assay (MAIT); format: in vivo; conditions: 30 mg/kg po; 5.5 mg/kg i.p. acetylcholine bromide 30 minutes later; ten minute observation
Protocol: The mouse acetylcholine bromide-induced abdominal constriction assay, is described by Collier et al. in Brit. J. Pharmacol. Chem. Ther., 32: 295-310, 1968, with minor modifications was used to assess analgesic potency of the compounds herein. The test drugs or appropriate vehicle were administered orally (p.o.) and 30 minutes later the animal received an intraperitoneal (i.p.) injection of 5.5 mg/kg acetylcholine bromide (Matheson, Coleman and Bell, East Rutherford, N.J.). The mice were then placed in groups of three into glass bell jars and observed for a ten minute observation period for the occurrence of an abdominal constriction response (defined as a wave of constriction and elongation passing caudally along the abdominal wall, accompanied by a twisting of the trunk and followed by extension of the hind limbs). The percent inhibition of this response to a nociceptive stimulus (equated to % analgesia) was calculated as follows: The % Inhibition of response, i.e., % analgesia is equal to the difference between the number of control animals responding and the number of drug-treated animals responding times 100 divided by the number of control animals responding.
At least 15 animals were used for control and in each of the drug treated groups. At least three doses were used to determine each dose response curve and ED50 (that dose which would produce 50% analgesia). The ED50 values and their 95% fiducial limits were determined by a computer assisted probit analysis.

[3] = 25° C., 20 min, read-out: α-2D Binding Ki

Compound | pKi [1, 3] | MAIT Activity % Inhibition [2] [%] | pKi ([1]; value in parentheses, not explained, read-out: α-2D Binding Ki (second value, in parentheses))
c1nc(C2CCCc3sccc32)c[nH]1 (stereo not shown) [Cp-3, 4-(4-Imidazoyl)-4,5,6,7-tetrahydrothianapthene Perchlorate] | 9.25 | 100 | 
c1nc(C2CCCc3ccsc32)c[nH]1 (stereo not shown) [Cp-6] | 9.46 |  | 
Cc1sc(C)c2c1CCC=C2c1c[nH]cn1 [Cp-4, 4-(1,3-Dimethyl-6,7-dihydrobenzo[c]thiophene-4-yl)-1H-imidazole(Z)-2-Butenedioate] |  | 40 | 8.92
C1=C(c2c[nH]cn2)c2sccc2CC1 [Cp-7] | 8.52 | 60 | 
Cc1sc(C)c2c1CCCC2c1c[nH]cn1.O=C(O)/C=C\C(=O)O (stereo not shown) [Cp-5, 4-(1,3-Dimethyl-4,5,6,7-tetrahydrobenzo[c]thiophene-4-yl)-1H-imidazole (Z)-2-Butenedioate] | 8.54 | 93 | 
C1=C(c2c[nH]cn2)c2ccsc2CC1 [Cp-2, 4-(4-Imidazoyl)-6,7-dihydrothianapthene Perchlorate] | 8.82 | 100 | 
c1cc(-c2c[nH]cn2)c2ccsc2c1 [Cp-1, 4-(Thionaphth-4-yl)-1H-imidazole (Z)-2-butenedioate] | 8.59 | 73 | 
